According to PubChem BioAssay (NCI):
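Where inhibition never reached the appropriate level, the endpoint shown equals the highest concentration tested. Otherwise, values were interpolated linearly from a five-concentration, 48-hour dose response in 96-well plates. TGI: total growth inhibition.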

How the values were obtained:
Test in all cases: NCI tumour cell line growth inhibition, 48 h
CAKI-1 renal = tested on: CAKI-1 renal
NCI-H522 lung = tested on: NCI-H522 lung
NCI-H226 lung = tested on: NCI-H226 lung
SNB-19 CNS = tested on: SNB-19 CNS
HCT-15 colon = tested on: HCT-15 colon
RXF 393 renal = tested on: RXF 393 renal
MDA-MB-231 breast = tested on: MDA-MB-231 breast
OVCAR-3 ovarian = tested on: OVCAR-3 ovarian
SF-295 CNS = tested on: SF-295 CNS
BT-549 breast = tested on: BT-549 breast
SK-MEL-28 melanoma = tested on: SK-MEL-28 melanoma
UACC-257 melanoma = tested on: UACC-257 melanoma
DU-145 prostate = tested on: DU-145 prostate
T-47D breast = tested on: T-47D breast
PC-3 prostate = tested on: PC-3 prostate
COLO 205 colon = tested on: COLO 205 colon
MDA-MB-435 = tested on: MDA-MB-435
A549 NSCLC = tested on: A549 NSCLC
CCRF-CEM leukemia = tested on: CCRF-CEM leukemia
U251 CNS = tested on: U251 CNS
LOX IMVI melanoma = tested on: LOX IMVI melanoma
EKVX NSCLC = tested on: EKVX NSCLC
MDA-N = tested on: MDA-N
HCC-2998 colon = tested on: HCC-2998 colon
OVCAR-8 ovarian = tested on: OVCAR-8 ovarian
K-562 leukemia = tested on: K-562 leukemia
NCI-H23 lung = tested on: NCI-H23 lung
OVCAR-4 ovarian = tested on: OVCAR-4 ovarian
TK-10 renal = tested on: TK-10 renal
MALME-3M melanoma = tested on: MALME-3M melanoma
KM12 colon = tested on: KM12 colon
SN12C renal = tested on: SN12C renal
SK-MEL-2 melanoma = tested on: SK-MEL-2 melanoma
ACHN renal = tested on: ACHN renal
OVCAR-5 ovarian = tested on: OVCAR-5 ovarian
IGROV1 ovarian = tested on: IGROV1 ovarian
SR leukemia = tested on: SR leukemia
SK-OV-3 ovarian = tested on: SK-OV-3 ovarian
SK-MEL-5 melanoma = tested on: SK-MEL-5 melanoma
UO-31 renal = tested on: UO-31 renal
SF-539 CNS = tested on: SF-539 CNS
MCF7 breast = tested on: MCF7 breast
SNB-75 CNS = tested on: SNB-75 CNS
HOP-92 NSCLC = tested on: HOP-92 NSCLC
HT29 colon = tested on: HT29 colon
SW-620 colon = tested on: SW-620 colon
NCI/ADR-RES ovarian = tested on: NCI/ADR-RES ovarian
UACC-62 melanoma = tested on: UACC-62 melanoma
M14 melanoma = tested on: M14 melanoma
HCT-116 colon = tested on: HCT-116 colon
NCI-H460 lung = tested on: NCI-H460 lung
786-0 renal = tested on: 786-0 renal
MOLT-4 leukemia = tested on: MOLT-4 leukemia
SF-268 CNS = tested on: SF-268 CNS
HS 578T breast = tested on: HS 578T breast
RPMI-8226 leukemia = tested on: RPMI-8226 leukemia
HL-60(TB) leukemia = tested on: HL-60(TB) leukemia
HOP-62 NSCLC = tested on: HOP-62 NSCLC
A498 renal = tested on: A498 renal

Measured: TGI

Cc1ccc(C2=C(C#N)C(=O)N3CCN=C3S2)cc1
> 100 µM: CAKI-1 renal | NCI-H522 lung | NCI-H226 lung | SNB-19 CNS | HCT-15 colon | RXF 393 renal | MDA-MB-231 breast | OVCAR-3 ovarian | SF-295 CNS | BT-549 breast | SK-MEL-28 melanoma | UACC-257 melanoma | DU-145 prostate | T-47D breast | PC-3 prostate | COLO 205 colon | MDA-MB-435 | A549 NSCLC | CCRF-CEM leukemia | U251 CNS | LOX IMVI melanoma | EKVX NSCLC | MDA-N | HCC-2998 colon | OVCAR-8 ovarian | K-562 leukemia | NCI-H23 lung | OVCAR-4 ovarian | TK-10 renal | MALME-3M melanoma | KM12 colon | SN12C renal | SK-MEL-2 melanoma | ACHN renal | OVCAR-5 ovarian | IGROV1 ovarian | SR leukemia | SK-OV-3 ovarian | SK-MEL-5 melanoma | UO-31 renal | SF-539 CNS | MCF7 breast | SNB-75 CNS | HOP-92 NSCLC | HT29 colon | SW-620 colon | NCI/ADR-RES ovarian | UACC-62 melanoma | M14 melanoma | HCT-116 colon | NCI-H460 lung | 786-0 renal | MOLT-4 leukemia

O=C1CCCC1C(O)(C(F)(F)F)C(F)(F)F (stereo not given)
> 100 µM: CAKI-1 renal | NCI-H522 lung | NCI-H226 lung | SF-268 CNS | SNB-19 CNS | HCT-15 colon | RXF 393 renal | MDA-MB-231 breast | OVCAR-3 ovarian | HS 578T breast | SF-295 CNS | SK-MEL-28 melanoma | UACC-257 melanoma | RPMI-8226 leukemia | DU-145 prostate | T-47D breast | PC-3 prostate | COLO 205 colon | MDA-MB-435 | A549 NSCLC | CCRF-CEM leukemia | U251 CNS | LOX IMVI melanoma | EKVX NSCLC | MDA-N | HCC-2998 colon | OVCAR-8 ovarian | K-562 leukemia | NCI-H23 lung | OVCAR-4 ovarian | TK-10 renal | MALME-3M melanoma | KM12 colon | SN12C renal | SK-MEL-2 melanoma | ACHN renal | HL-60(TB) leukemia | OVCAR-5 ovarian | IGROV1 ovarian | HOP-62 NSCLC | SR leukemia | SK-MEL-5 melanoma | UO-31 renal | SF-539 CNS | MCF7 breast | SNB-75 CNS | HOP-92 NSCLC | HT29 colon | SW-620 colon | A498 renal | NCI/ADR-RES ovarian | UACC-62 melanoma | M14 melanoma | HCT-116 colon | NCI-H460 lung | 786-0 renal | MOLT-4 leukemia
